Structures are written as SMILES.

Data on one compound can be found in publication PMC4490784, “Compensatory induction of MYC expression by sustained CDK9 inhibition via a BRD4-dependent mechanism” (eLife, 2015).

One experiment deals with T1, FGFR2 (Homo sapiens, UniProt P21802).
T1 construct: purchased DiscoveRx KINOMEscan
Nature of the experiment: KINOMEscan binding assay. Particulars: read-out: % Retention on Solid Support. In outline:
(§1)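 Over 400 kinases were screened. i-CDK9 was applied at 1 and 10 µM. Occupancy was read by competition with an active site-directed ligand.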

The next experiment has as its target T2, GAK (Homo sapiens, UniProt O14976).
T2 construct: purchased DiscoveRx KINOMEscan
Nature of the experiment: KINOMEscan binding assay. The conditions noted are these: read-out: % Retention on Solid Support. The method in brief: as §1

For another experiment, the target named is T3, EGFR(L861Q) (Homo sapiens, UniProt P00533, L861Q).
T3 construct: purchased DiscoveRx KINOMEscan
Nature of the experiment: KINOMEscan binding assay. In outline:
as §1

For a further experiment, the target named is T4, MRCKB (Homo sapiens, UniProt Q9Y5S2).
T4 construct: purchased DiscoveRx KINOMEscan
Nature of the experiment: KINOMEscan binding assay. Particulars: read-out: % Retention on Solid Support. The method in brief:
as §1

In the next experiment the target is T5, INSRR (Homo sapiens, UniProt P14616).
T5 construct: purchased DiscoveRx KINOMEscan
T5 sequence (P14616 27-1297): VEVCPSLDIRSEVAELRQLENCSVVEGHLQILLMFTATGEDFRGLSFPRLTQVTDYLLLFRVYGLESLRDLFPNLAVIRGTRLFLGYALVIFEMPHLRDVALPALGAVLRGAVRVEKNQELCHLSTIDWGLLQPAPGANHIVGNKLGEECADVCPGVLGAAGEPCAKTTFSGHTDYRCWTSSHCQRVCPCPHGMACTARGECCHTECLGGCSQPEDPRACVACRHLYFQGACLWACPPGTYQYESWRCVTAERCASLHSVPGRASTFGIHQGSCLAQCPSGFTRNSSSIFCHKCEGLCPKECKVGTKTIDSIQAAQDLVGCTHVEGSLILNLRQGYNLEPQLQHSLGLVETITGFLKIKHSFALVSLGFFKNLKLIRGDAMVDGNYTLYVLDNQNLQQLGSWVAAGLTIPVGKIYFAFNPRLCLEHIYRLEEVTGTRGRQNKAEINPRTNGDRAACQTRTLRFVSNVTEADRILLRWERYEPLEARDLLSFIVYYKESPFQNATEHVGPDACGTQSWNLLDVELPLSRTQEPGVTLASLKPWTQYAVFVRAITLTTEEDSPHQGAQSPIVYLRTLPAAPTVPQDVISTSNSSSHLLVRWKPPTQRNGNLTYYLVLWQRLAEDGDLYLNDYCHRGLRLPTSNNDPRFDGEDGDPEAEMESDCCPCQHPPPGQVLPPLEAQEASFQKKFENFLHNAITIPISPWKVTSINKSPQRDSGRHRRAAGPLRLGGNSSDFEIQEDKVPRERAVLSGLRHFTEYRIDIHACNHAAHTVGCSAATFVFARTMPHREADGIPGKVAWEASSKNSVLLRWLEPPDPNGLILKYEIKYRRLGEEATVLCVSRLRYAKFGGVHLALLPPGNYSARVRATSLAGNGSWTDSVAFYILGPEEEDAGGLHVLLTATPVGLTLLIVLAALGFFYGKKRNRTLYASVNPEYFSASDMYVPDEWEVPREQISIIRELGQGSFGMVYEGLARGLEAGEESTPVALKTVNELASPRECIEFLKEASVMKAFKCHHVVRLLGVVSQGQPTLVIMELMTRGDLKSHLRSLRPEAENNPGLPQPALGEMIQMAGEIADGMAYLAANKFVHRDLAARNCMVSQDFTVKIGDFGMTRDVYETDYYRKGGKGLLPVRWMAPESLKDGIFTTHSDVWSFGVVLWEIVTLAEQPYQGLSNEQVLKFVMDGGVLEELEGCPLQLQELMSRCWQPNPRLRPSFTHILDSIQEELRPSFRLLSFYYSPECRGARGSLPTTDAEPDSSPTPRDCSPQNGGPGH
Nature of the experiment: KINOMEscan binding assay. Particulars: read-out: % Retention on Solid Support. In outline: as §1

For a further experiment, the target named is T6, EPHA2 (Homo sapiens, UniProt P29317).
T6 construct: purchased DiscoveRx KINOMEscan
In words: KINOMEscan binding assay. Particulars: read-out: % Retention on Solid Support. In outline:
as §1

The target of the next experiment is T7, ERK5 (Homo sapiens, UniProt Q13164).
T7 construct: purchased DiscoveRx KINOMEscan
T7 sequence (Q13164 whole entry): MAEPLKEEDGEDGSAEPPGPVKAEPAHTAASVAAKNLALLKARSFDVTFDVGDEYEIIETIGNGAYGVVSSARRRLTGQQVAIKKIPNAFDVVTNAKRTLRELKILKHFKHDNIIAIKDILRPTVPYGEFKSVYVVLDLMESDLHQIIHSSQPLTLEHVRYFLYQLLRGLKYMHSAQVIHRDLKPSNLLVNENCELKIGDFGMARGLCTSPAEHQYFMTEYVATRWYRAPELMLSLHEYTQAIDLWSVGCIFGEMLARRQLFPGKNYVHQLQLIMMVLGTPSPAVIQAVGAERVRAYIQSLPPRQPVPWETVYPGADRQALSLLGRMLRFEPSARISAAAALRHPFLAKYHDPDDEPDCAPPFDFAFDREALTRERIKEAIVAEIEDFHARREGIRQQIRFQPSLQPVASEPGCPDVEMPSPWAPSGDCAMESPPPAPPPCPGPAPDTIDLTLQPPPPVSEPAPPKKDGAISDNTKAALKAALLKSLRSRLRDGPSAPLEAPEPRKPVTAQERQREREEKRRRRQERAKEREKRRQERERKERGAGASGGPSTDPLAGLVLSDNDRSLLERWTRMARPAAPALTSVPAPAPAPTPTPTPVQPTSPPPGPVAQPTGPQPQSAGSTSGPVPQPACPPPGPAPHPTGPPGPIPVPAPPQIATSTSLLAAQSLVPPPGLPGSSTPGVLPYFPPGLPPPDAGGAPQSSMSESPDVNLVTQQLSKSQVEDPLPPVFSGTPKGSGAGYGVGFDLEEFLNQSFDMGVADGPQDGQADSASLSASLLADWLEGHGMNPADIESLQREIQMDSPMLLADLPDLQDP
In words: KINOMEscan binding assay. Particulars: read-out: % Retention on Solid Support. In outline: as §1

Experiment [1] deals with T8, RPS6KA4(Kin.Dom.1-N-terminal) (Homo sapiens, UniProt O75676).
T8 construct: RPS6KA4(Kin.Dom.1-N-terminal); purchased DiscoveRx KINOMEscan
T8 sequence (O75676 1-371 limits assumed): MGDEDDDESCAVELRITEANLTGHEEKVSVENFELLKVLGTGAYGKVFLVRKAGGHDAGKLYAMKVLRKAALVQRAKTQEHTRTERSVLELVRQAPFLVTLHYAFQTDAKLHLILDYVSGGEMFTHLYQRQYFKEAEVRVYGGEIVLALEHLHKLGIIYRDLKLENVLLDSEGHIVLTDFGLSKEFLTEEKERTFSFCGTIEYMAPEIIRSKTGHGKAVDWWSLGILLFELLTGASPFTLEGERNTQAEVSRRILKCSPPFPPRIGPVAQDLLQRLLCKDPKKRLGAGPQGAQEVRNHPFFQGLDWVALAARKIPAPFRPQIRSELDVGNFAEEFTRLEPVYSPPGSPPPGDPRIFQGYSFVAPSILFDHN
Nature of the experiment: KINOMEscan binding assay. Particulars: read-out: % Retention on Solid Support. The method in brief:
as §1

The target of the next experiment is CDK9-CycT1 (Homo sapiens, UniProt P50750). Nature of the experiment: In vitro kinase assay with CDK7tide, effect of BRD4 on response to i-CDK9. The experiment is classed as biochemical. Here is the method: The reactions were stopped by adding 60 mM EDTA plus 0.01% Tween 20. After the addition of AlphaScreen beads (PerkinElmer) and detection antibody (Cell Signaling Technology, #4735) followed by overnight incubation at room temperature, the plates were read on an Envision 2101 (PerkinElmer).
CDK9-CycT1, sequence (P50750 whole entry): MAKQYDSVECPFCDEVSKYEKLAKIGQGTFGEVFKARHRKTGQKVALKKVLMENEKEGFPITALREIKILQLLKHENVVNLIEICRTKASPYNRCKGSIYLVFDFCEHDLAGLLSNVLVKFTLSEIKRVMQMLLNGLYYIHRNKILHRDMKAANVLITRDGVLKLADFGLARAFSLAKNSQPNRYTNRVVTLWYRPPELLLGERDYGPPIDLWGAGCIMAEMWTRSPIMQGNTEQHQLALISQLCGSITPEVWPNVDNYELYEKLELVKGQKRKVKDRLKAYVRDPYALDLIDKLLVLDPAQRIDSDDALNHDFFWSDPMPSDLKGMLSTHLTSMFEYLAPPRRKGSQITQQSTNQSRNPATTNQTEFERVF
CDK9-CycT1, sequence (O60563 whole entry partner): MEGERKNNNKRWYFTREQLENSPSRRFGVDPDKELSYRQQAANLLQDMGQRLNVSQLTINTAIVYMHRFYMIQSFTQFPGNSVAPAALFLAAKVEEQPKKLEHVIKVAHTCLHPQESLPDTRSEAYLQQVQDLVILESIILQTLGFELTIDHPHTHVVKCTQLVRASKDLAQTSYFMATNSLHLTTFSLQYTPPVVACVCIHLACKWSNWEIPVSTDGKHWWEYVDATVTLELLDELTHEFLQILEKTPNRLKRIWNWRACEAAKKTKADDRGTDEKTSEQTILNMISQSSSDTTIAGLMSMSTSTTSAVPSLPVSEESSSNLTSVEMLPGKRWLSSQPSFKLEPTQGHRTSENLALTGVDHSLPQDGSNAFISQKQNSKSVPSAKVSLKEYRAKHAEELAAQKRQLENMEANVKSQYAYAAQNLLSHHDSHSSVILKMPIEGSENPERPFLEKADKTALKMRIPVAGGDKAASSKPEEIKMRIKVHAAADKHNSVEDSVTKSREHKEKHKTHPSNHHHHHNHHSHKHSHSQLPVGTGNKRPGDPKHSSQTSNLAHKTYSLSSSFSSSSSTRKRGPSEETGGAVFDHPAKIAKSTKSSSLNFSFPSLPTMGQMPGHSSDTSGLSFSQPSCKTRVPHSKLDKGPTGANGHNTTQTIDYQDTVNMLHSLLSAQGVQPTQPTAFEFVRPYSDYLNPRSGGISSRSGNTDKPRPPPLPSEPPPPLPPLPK

T1 sequence (P21802 22-821): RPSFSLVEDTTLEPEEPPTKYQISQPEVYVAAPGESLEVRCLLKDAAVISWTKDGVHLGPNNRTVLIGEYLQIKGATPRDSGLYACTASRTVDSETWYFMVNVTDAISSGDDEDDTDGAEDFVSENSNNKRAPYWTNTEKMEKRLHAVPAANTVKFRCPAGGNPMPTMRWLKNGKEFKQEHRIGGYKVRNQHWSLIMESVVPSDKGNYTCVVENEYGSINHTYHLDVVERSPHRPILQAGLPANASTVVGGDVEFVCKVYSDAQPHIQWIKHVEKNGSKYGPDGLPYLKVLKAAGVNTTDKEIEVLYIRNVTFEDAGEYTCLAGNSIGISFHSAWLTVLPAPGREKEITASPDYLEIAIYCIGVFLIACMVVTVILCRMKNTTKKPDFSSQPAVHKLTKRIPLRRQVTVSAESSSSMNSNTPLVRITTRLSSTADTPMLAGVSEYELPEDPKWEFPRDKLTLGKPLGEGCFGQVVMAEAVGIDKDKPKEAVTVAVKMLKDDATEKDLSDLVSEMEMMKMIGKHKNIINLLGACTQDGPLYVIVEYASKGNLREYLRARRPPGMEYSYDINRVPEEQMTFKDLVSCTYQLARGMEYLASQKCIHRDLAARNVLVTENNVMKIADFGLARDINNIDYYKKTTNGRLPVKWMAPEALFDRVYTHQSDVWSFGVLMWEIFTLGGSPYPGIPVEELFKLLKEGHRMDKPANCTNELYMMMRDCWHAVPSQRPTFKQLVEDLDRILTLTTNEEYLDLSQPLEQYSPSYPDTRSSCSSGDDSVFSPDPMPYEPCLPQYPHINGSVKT

Take `N[C@H]1CC[C@H](Nc2cc(-c3cccc(NCc4cccc(F)c4)n3)c(Cl)cn2)CC1` [i-CDK9, N2′-(trans-4-aminocyclohexyl)-5′-chloro-N6-(3-fluorobenzyl)-2,4′-bipyridine-2′,6-diamine]: the remaining binding at 1 µM stood at 97% at FGFR2 (1 µM i-CDK9); 100% on GAK (1 µM i-CDK9); 95% at MRCKB (1 µM i-CDK9); 92% at INSRR (1 µM i-CDK9); 100% at EPHA2 (1 µM i-CDK9); 100% at ERK5 (1 µM i-CDK9). Moreover, in [1] (1 µM i-CDK9), the remaining binding at 1 µM came to 48%. For the same compound, the remaining binding at 10 µM came out at 100% on FGFR2 (10 µM i-CDK9); 89% at GAK (10 µM i-CDK9); 100% at MRCKB (10 µM i-CDK9); 97% on INSRR (10 µM i-CDK9); 100% at EPHA2 (10 µM i-CDK9); 92% at ERK5 (10 µM i-CDK9). In addition, the remaining binding at 10 µM in [1] (10 µM i-CDK9) amounted to 84%. In addition, the figures for the “% Retention on Solid Support” value on EGFR(L861Q) (1 µM i-CDK9) and on EGFR(L861Q) (10 µM i-CDK9) were 78% and 74%, respectively. For the same compound, the IC50 at CDK9-CycT1 (CDK9/CycT1 + WT BRD4) worked out at 14.7 ± 2.1 nM; on CDK9-CycT1 (CDK9/CycT1 + ΔPID BRD4), 7.2 ± 0.6 nM; against CDK9-CycT1 (CDK9/CycT1, absence of BRD4), 4.4 ± 0.7 nM.
